{"source": "paper PMC11111408", "about": "“Concurrent inhibition of oncogenic and wild-type RAS-GTP for cancer therapy” (Nature, 2024)", "key": {"[1]": {"system": "NCI-H358 and MIA PaCa-2 cells expressing RTK constructs", "assay": "pERK (MSD) in NCI-H358 and MIA PaCa-2 cells expressing exogenous RTK or RTK fusion constructs", "assay_type": "cell-based, human"}, "[2]": {"assay": "Cell-to-medium concentration ratio of RMC-7977 (LC–MS/MS bioanalysis of cells and supernatant)", "assay_type": "in vitro ADME, human", "protocol": "Cells were pelleted by centrifugation, and 1 ml of supernatant was reserved and frozen at −80 °C. Cell pellets were washed twice in cold PBS, and pre-weighed tubes containing the cell pellets were weighed prior to snap freezing in a slurry of dry ice and ethanol. […] Cell pellet samples were resuspended in cell medium (diluted as needed), then treated as supernatant. An aliquot of supernatant or resuspended cells (50 µL) was quenched with a 3× volume of acetonitrile containing the internal standard terfenadine (2.5 ng ml^−1). […] The lower limit of quantification was 0.25 ng ml^−1, and the calibration range was 0.25 to 400 ng ml^−1."}}, "note": "Where “and” joins values, the source holds several entries; their conditions need not be identical. Equal entries are not always repeated.", "data": [{"smiles": "CCn1c(-c2cc(N3CCN(C4CC4)CC3)cnc2[C@H](C)OC)c2c3cc(ccc31)-c1csc(n1)C[C@H](NC(=O)[C@H]1[C@@H]3COC[C@@H]31)C(=O)N1CCC[C@H](N1)C(=O)OCC(C)(C)C2", "note": "[RMC-7977]", "values": [{"measurement": "pERK inhibition in H358 RTK overexpression cells", "setting": "[1]; GFP, RMC-7977 0.0152 nM", "value": "88.72 and 97.32"}, {"measurement": "pERK in NCI-H358 RTK overexpression cells treated with RMC-7977", "setting": "[1]; GFP, RMC-7977 0.0457 nM", "value": "126.84 and 117.32"}, {"measurement": "pERK inhibition in H358 RTK overexpression cells", "setting": "[1]; GFP, RMC-7977 0.0457 nM", "value": "102.39 and 94.00"}, {"measurement": "pERK in NCI-H358 RTK overexpression cells treated with RMC-7977", "setting": "[1]; GFP, RMC-7977 0.41 nM", "value": "51.59 and 78.61"}, {"measurement": "pERK inhibition in H358 RTK overexpression cells", "setting": "[1]; GFP, RMC-7977 0.41 nM", "value": "66.43 and 65.41"}, {"measurement": "pERK inhibition in MiaPaCa2 RTK fusion overexpression cells treated with RMC-7977", "setting": "[1]; GFP, RMC-7977 0.412 nM", "value": "27.42 and 30.00 and 31.02 and 30.72"}, {"measurement": "pERK inhibition in MiaPaCa2 RTK fusion overexpression cells treated with RMC-7977", "setting": "[1]; GFP, RMC-7977 1.235 nM", "value": "9.02 and 12.77 and 12.06 and 11.06"}, {"measurement": "pERK in NCI-H358 RTK overexpression cells treated with RMC-7977", "setting": "[1]; GFP, RMC-7977 11.11 nM", "value": 4.80}, {"measurement": "pERK inhibition in H358 RTK overexpression cells", "setting": "[1]; GFP, RMC-7977 11.11 nM", "value": "7.16 and 4.70"}, {"measurement": "pERK inhibition in MiaPaCa2 RTK fusion overexpression cells treated with RMC-7977", "setting": "[1]; GFP, RMC-7977 11.111 nM", "value": "3.33 and 3.53 and 3.95 and 3.59"}, {"measurement": "pERK in NCI-H358 RTK overexpression cells treated with RMC-7977", "setting": "[1]; GFP, RMC-7977 33.33 nM", "value": "2.56 and 2.82"}, {"measurement": "pERK inhibition in H358 RTK overexpression cells", "setting": "[1]; GFP, RMC-7977 33.33 nM", "value": "3.17 and 2.48"}, {"measurement": "pERK inhibition in MiaPaCa2 RTK fusion overexpression cells treated with RMC-7977", "setting": "[1]; GFP, RMC-7977 33.333 nM", "value": "3.43 and 3.24 and 2.97 and 2.93"}, {"measurement": "pERK in NCI-H358 RTK overexpression cells treated with RMC-7977", "setting": "[1]; GFP, RMC-7977 100.00 nM", "value": "2.07 and 1.93"}, {"measurement": "pERK inhibition in H358 RTK overexpression cells", "setting": "[1]; GFP, RMC-7977 100.00 nM", "value": "2.60 and 2.58"}, {"measurement": "pERK inhibition in MiaPaCa2 RTK fusion overexpression cells treated with RMC-7977", "setting": "[1]; GFP, RMC-7977 100.000 nM", "value": "3.01 and 2.87 and 2.65 and 2.84"}, {"measurement": "pERK in NCI-H358 RTK overexpression cells treated with RMC-7977", "setting": "[1]; GFP, RMC-7977 300.00 nM", "value": "2.17 and 2.42"}, {"measurement": "pERK inhibition in H358 RTK overexpression cells", "setting": "[1]; GFP, RMC-7977 300.00 nM", "value": "2.46 and 2.59"}, {"measurement": "pERK in NCI-H358 RTK overexpression cells treated with RMC-7977", "setting": "[1]; HER2, RMC-7977 0.0152 nM", "value": "111.00 and 102.34"}, {"measurement": "pERK inhibition in H358 RTK overexpression cells", "setting": "[1]; HER2, RMC-7977 0.0152 nM", "value": "107.19 and 89.20"}, {"measurement": "pERK in NCI-H358 RTK overexpression cells treated with RMC-7977", "setting": "[1]; HER2, RMC-7977 0.0457 nM", "value": "106.57 and 84.47"}, {"measurement": "pERK inhibition in H358 RTK overexpression cells", "setting": "[1]; HER2, RMC-7977 0.0457 nM", "value": "86.86 and 85.86"}, {"measurement": "pERK in NCI-H358 RTK overexpression cells treated with RMC-7977", "setting": "[1]; HER2, RMC-7977 0.41 nM", "value": "72.44 and 63.75"}, {"measurement": "pERK inhibition in H358 RTK overexpression cells", "setting": "[1]; HER2, RMC-7977 0.41 nM", "value": "63.34 and 59.01"}, {"measurement": "pERK in NCI-H358 RTK overexpression cells treated with RMC-7977", "setting": "[1]; HER2, RMC-7977 11.11 nM", "value": 2.66}, {"measurement": "pERK inhibition in H358 RTK overexpression cells", "setting": "[1]; HER2, RMC-7977 11.11 nM", "value": "6.01 and 6.18"}, {"measurement": "pERK in NCI-H358 RTK overexpression cells treated with RMC-7977", "setting": "[1]; HER2, RMC-7977 33.33 nM", "value": "1.70 and 1.64"}, {"measurement": "pERK inhibition in H358 RTK overexpression cells", "setting": "[1]; HER2, RMC-7977 33.33 nM", "value": "5.40 and 5.32"}, {"measurement": "pERK in NCI-H358 RTK overexpression cells treated with RMC-7977", "setting": "[1]; HER2, RMC-7977 100.00 nM", "value": "1.42 and 1.69"}, {"measurement": "pERK in NCI-H358 RTK overexpression cells treated with RMC-7977", "setting": "[1]; HER2, RMC-7977 300.00 nM", "value": "2.02 and 1.78"}, {"measurement": "pERK in NCI-H358 RTK overexpression cells treated with RMC-7977", "setting": "[1]; RET M918T, RMC-7977 0.0152 nM", "value": "93.23 and 141.77"}, {"measurement": "pERK inhibition in H358 RTK overexpression cells", "setting": "[1]; RET M918T, RMC-7977 0.0152 nM", "value": "96.21 and 105.26"}, {"measurement": "pERK in NCI-H358 RTK overexpression cells treated with RMC-7977", "setting": "[1]; RET M918T, RMC-7977 0.0457 nM", "value": "91.92 and 151.65"}, {"measurement": "pERK inhibition in H358 RTK overexpression cells", "setting": "[1]; RET M918T, RMC-7977 0.0457 nM", "value": "91.15 and 96.00"}, {"measurement": "pERK in NCI-H358 RTK overexpression cells treated with RMC-7977", "setting": "[1]; RET M918T, RMC-7977 0.41 nM", "value": "60.67 and 71.79"}, {"measurement": "pERK inhibition in H358 RTK overexpression cells", "setting": "[1]; RET M918T, RMC-7977 0.41 nM", "value": "61.29 and 64.34"}, {"measurement": "pERK inhibition in H358 RTK overexpression cells", "setting": "[1]; RET M918T, RMC-7977 3.70 nM", "value": "20.58 and 17.35"}, {"measurement": "pERK in NCI-H358 RTK overexpression cells treated with RMC-7977", "setting": "[1]; RET M918T, RMC-7977 11.11 nM", "value": "4.81 and 4.27"}, {"measurement": "pERK inhibition in H358 RTK overexpression cells", "setting": "[1]; RET M918T, RMC-7977 11.11 nM", "value": "7.08 and 6.42"}, {"measurement": "pERK in NCI-H358 RTK overexpression cells treated with RMC-7977", "setting": "[1]; RET M918T, RMC-7977 33.33 nM", "value": "2.17 and 2.02"}, {"measurement": "pERK inhibition in H358 RTK overexpression cells", "setting": "[1]; RET M918T, RMC-7977 33.33 nM", "value": "3.13 and 3.07"}, {"measurement": "pERK in NCI-H358 RTK overexpression cells treated with RMC-7977", "setting": "[1]; RET M918T, RMC-7977 100.00 nM", "value": "1.44 and 1.22"}, {"measurement": "pERK inhibition in H358 RTK overexpression cells", "setting": "[1]; RET M918T, RMC-7977 100.00 nM", "value": "1.99 and 2.21"}, {"measurement": "pERK in NCI-H358 RTK overexpression cells treated with RMC-7977", "setting": "[1]; RET M918T, RMC-7977 300.00 nM", "value": 1.32}, {"measurement": "pERK inhibition in H358 RTK overexpression cells", "setting": "[1]; RET M918T, RMC-7977 300.00 nM", "value": "2.03 and 1.88"}, {"measurement": "LC/MS bioanalysis of cells treated with RMC-7977", "setting": "[2]; AsPC-1, RMC-7977 10 nM", "value": "161.5 and 241.3 and 143.0"}, {"measurement": "LC/MS bioanalysis of cells treated with RMC-7977", "setting": "[2]; AsPC-1, RMC-7977 100 nM", "value": "76.8 and 68.8 and 89.6"}, {"measurement": "LC/MS bioanalysis of cells treated with RMC-7977", "setting": "[2]; AsPC-1, RMC-7977 1000 nM", "value": "50.6 and 44.9"}]}]}
